Data: US20250064805A1, “Methods of Treating Myeloproliferative Disorders Based on BTK Occupancy & Resynthesis Rate” (Telios Pharma Inc., priority 2022, published 2025)

Key:
[1] = Half-life of Compound 128 in vivo
Method: In myeloproliferative disorders, the de novo resynthesis rate of BTK following covalent inhibition by Compound 128 is greater than the de novo BTK resynthesis rate in B-cell malignancies. […] The short half-life of Compound 128 (1 to 2 hours in vivo), coupled with the faster BTK turnover in myelofibrosis in particular, and myeloproliferative disorders in general, requires higher BID dosing. Thus, a 300 mg BID dose in subjects with myelofibrosis should ensure maximal BTK occupancy at trough levels of this drug.

[2] = biological target: T1, BTK (Homo sapiens, UniProt Q06187); test: BTK resynthesis rate in cells after saturating exposure to and washout of Compound 128 (free BTK by ELISA); type: cell-based
T1 construct: endogenous in cells; host or cells: RAMOS B cells, HEL-92, MV-411, MOLM-13, THP-1, UKE-1, primary myeloid cells/monocytes from a healthy donor, primary cells from AML patients
Method: Various cell types and tissues show different rates of BTK synthesis (see FIG. 1). Cells were cultured with a saturating concentration of Compound 128 to occupy all BTK protein (0% free BTK). This was followed by a washout of Compound 128 and culturing for up to 48 hours with no BTK inhibitor to allow the cells to synthesize new BTK protein. The rate of BTK protein synthesis was determined by measuring the free BTK by ELISA at different time points. RAMOS B cells resynthesized BTK at a rate of only 26% per day, while Hel-92 and MV-411 cells resynthesized BTK at a rate of over 100% per day. […] The rate of BTK resynthesis in naïve AML patients was roughly 30% per day, with low inter-patient variability.
BTK resynthesis in each cell type was measured as described in Example 1. The left graph (see FIG. 2) depicts the BTK resynthesis rate in monocytes from a normal individual following a two hour exposure to Compound 128. The BTK resynthesis rate was determined to be 61% per day in normal monocytes. The right graph (see FIG. 2) depicts the BTK resynthesis rate in the presence of BTK inhibitor Compound 128 in two different cell lines.
BTK resynthesis was measured in additional AML and MF cell types as described in Example 1 following a one hour exposure to Compound 128 (see FIG. 3). MOLM-13 cells resynthesized BTK at a rate of only 21% per day, while THP-1 cells resynthesized BTK at a rate of 84% per day and UKE-1 cells resynthesized BTK at a rate of over 100% per day.

T1 sequence (Q06187 whole entry): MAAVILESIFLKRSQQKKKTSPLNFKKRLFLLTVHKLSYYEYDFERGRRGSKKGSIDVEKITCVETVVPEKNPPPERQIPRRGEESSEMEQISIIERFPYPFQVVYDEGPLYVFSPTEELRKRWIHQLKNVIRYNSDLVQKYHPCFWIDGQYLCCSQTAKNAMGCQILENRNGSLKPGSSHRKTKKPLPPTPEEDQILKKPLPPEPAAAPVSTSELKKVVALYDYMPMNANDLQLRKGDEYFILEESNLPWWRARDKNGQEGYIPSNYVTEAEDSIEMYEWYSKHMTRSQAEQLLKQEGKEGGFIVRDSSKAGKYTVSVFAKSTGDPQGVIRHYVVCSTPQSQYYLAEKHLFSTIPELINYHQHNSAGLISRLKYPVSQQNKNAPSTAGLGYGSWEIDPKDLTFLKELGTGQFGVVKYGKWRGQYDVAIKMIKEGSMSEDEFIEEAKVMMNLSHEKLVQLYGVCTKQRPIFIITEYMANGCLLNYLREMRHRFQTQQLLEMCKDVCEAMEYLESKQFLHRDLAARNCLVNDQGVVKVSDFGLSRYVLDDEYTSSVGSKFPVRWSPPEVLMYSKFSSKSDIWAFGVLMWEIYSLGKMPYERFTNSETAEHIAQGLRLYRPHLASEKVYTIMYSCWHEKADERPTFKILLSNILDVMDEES

half-life [1]: 1 to 2 h | initial BTK resynthesis rate ([2]; HEL-92 (myelofibrosis) cells): 43 % per day | BTK resynthesis rate after repeated exposure ([2]; HEL-92 (myelofibrosis) cells, repeated exposure): 28 % per day | change of BTK resynthesis rate after treatment ([2]; Hel-92 cells, after 4 days of treatment): decreased BTK resynthesis rate | BTK resynthesis rate ([2]; Hel-92 cells, saturating concentration, washout, culture up to 48 hours): over 100 % per day | BTK resynthesis rate ([2]; MOLM-13 cells, one hour exposure): 21 % per day | BTK resynthesis rate after continued exposure ([2]; MV-411 cells (AML), continued exposure for seven days): 44 % per day | initial BTK resynthesis rate ([2]; MV-411 cells (AML)): 83 % per day | change of BTK resynthesis rate after treatment ([2]; MV-411 cells, after 7 days of treatment): decreased BTK resynthesis rate | BTK resynthesis rate ([2]; MV-411 cells, saturating concentration, washout, culture up to 48 hours): over 100 % per day | BTK resynthesis rate ([2]; RAMOS B cells, saturating concentration, washout, culture up to 48 hours): 26 % per day | BTK resynthesis rate ([2]; THP-1 cells, one hour exposure): 84 % per day | BTK resynthesis rate ([2]; UKE-1 cells, one hour exposure): over 100 % per day | BTK resynthesis rate ([2]; culture of primary myeloid cells from a healthy donor): 67 % per day | BTK resynthesis rate ([2]; cultures of primary cells from patients with relapsed AML): 57 % per day | de novo BTK resynthesis rate, HEL-92 cells compared to Ramos B-lymphoblastoid cell line ([2]; following covalent inhibition by Compound 128): four-fold higher | BTK resynthesis rate ([2]; monocytes from a normal individual, two hour exposure): 61 % per day | BTK resynthesis rate ([2]; naïve AML patients): roughly 30 % per day
Structure (SMILES): C=CC(=O)N1CCC(F)(CNc2ncnc(N)c2-c2ccc(Oc3ccccc3)cc2)CC1 [Compound 128, 1-(4-(((6-amino-5-(4-phenoxyphenyl)pyrimidin-4-yl)amino)methyl)-4-fluoropiperidin-1-yl)prop-2-en-1-one]
